Assay results reported in paper PMC5781229 (Analytical biochemistry, 2017).

Biological target: TET2 (Homo sapiens, UniProt Q6N021, DEL1481-1843)

Q: For `O=C(O)CCC(=O)C(=O)O` [compound 1, 2KG], which Km is on record?
A: The Km was 15.7 µM.
